Assays:
[1] = molecular target: T1, BACE1 (Homo sapiens (Human), UniProt P56817); test: In vitro enzymatic BACE1 FRET assay; format: biochemical; details: read-out: BACE1 Enzyme IC50
Target sequence in this assay (P56817 46-501): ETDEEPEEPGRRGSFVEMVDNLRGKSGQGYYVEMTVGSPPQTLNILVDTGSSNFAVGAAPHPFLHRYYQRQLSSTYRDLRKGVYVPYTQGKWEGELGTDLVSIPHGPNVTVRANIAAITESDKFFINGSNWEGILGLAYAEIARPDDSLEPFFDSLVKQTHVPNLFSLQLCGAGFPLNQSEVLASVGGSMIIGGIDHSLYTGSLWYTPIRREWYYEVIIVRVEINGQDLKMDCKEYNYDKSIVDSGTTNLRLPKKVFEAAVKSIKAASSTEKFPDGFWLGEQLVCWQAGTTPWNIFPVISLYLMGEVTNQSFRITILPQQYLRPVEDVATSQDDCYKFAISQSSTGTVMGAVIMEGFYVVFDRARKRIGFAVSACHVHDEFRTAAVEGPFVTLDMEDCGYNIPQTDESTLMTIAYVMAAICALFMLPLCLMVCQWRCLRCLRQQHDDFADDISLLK

[2] = molecular target: T1, BACE1; test: In vitro BACE1 cell-based assay (Aβ40 in conditioned medium of cells stably expressing APP, HTRF); details: Aβ40 in conditioned media after 24 h incubation
Target sequence in this assay (P56817 46-501, species assumed): as the sequence (P56817 46-501) above

[3] = molecular target: human recombinant BACE2 (Homo sapiens (Human), UniProt Q9Y5Z0); test: In vitro enzymatic BACE2 FRET assay; format: biochemical; details: read-out: BACE2 Enzyme IC50
[4] = molecular target: Cathepsin D (CatD) (Homo sapiens (Human), UniProt P07339); test: In vitro enzymatic Cathepsin D (CatD) FRET assay; format: biochemical; details: read-out: Cat D Enzyme IC50
Sequence of Cathepsin D (CatD) (P07339 65-412, species assumed): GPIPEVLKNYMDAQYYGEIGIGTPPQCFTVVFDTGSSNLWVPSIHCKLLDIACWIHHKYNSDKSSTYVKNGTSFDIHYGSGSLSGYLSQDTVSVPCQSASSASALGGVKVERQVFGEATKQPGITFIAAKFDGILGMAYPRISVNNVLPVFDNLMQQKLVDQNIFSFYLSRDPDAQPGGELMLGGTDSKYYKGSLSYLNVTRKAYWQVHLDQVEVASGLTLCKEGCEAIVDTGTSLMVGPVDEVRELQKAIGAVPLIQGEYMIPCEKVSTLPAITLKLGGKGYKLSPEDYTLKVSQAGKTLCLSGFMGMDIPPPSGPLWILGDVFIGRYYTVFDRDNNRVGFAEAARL

Sequence of human recombinant BACE2 (Q9Y5Z0 63-518): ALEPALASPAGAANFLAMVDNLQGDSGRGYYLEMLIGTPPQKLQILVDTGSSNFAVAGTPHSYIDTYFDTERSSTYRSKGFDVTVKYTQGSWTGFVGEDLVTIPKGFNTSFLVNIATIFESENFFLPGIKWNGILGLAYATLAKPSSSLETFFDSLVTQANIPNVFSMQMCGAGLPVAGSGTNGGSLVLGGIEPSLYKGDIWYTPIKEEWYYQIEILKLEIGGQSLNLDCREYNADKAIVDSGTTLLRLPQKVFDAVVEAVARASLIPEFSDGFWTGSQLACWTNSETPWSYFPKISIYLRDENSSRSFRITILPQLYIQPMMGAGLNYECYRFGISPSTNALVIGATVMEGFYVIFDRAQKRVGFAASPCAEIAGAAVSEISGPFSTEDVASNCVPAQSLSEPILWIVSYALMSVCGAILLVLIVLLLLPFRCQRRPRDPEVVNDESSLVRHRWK

CC1(C)C(N)=N[C@](C)(c2cc(/C=C(\F)c3ncc(C(F)(F)F)cc3Cl)ccc2F)CS1(=O)=O [Example 264, (R,Z)-5-amino-3-(5-(2-(3-chloro-5-(trifluoromethyl)pyridin-2-yl)-2-fluorovinyl)-2-fluorophenyl)-3,6,6-trimethyl-3,6-dihydro-2H-1,4-thiazine 1,1-dioxide] showed an IC50 [1] of 10 nM, an IC50 [2] of 75 nM and an IC50 [3] of 38 nM. It also gave an IC50 [4] of 117000 nM.
For COc1cc(/C(F)=C/c2ccc(F)c([C@]3(C)CS(=O)(=O)N(C)C(N)=N3)c2)ncc1Cl [Example 230, (R,Z)-3-amino-5-(5-(2-(5-chloro-4-methoxypyridin-2-yl)-2-fluorovinyl)-2-fluorophenyl)-2,5-dimethyl-5,6-dihydro-2H-1,2,4-thiadiazine 1,1-dioxide], the IC50 [1] was 179 nM, the IC50 [2] was 656 nM and the IC50 [3] was 24 nM. It also gave an IC50 [4] of 111000 nM.
For C#CCOc1cnc(/C(F)=C/c2ccc(F)c([C@@]3(C)N=C(N)[C@@]4(CF)CC[C@@H]3S4(=O)=O)c2)cn1 [Example 108, (1R,4R,5S)-2-amino-4-(2-fluoro-5-((Z)-2-fluoro-2-(5-(prop-2-yn-1-yloxy)pyrazin-2-yl)vinyl)phenyl)-1-(fluoromethyl)-4-methyl-8-thia-3-azabicyclo[3.2.1]oct-2-ene 8,8-dioxide], the IC50 [1] was 3 nM, the IC50 [2] was 6 nM and the IC50 [3] was 57 nM. For the same compound, the IC50 [4] was 145000 nM.
CC#C[C@@H](CC)Oc1cnc(/C(F)=C/c2ccc(F)c([C@]3(C)CS(=O)(=O)C(C)(C)C(N)=N3)c2)cn1 (single isomer, unassigned) [Example 198] showed an IC50 [1] of 113 nM, an IC50 [2] of 173 nM and an IC50 [3] of 371 nM. It also gave an IC50 [4] of 38300 nM.
Cc1nnc(COc2cnc(/C(F)=C/c3ccc(F)c([C@]4(C)CS(=O)(=O)C(C)(C)C(N)=N4)c3)cn2)o1 [Example 176, (R,Z)-5-amino-3-(2-fluoro-5-(2-fluoro-2-(5-((5-methyl-1,3,4-oxadiazol-2-yl)methoxy)pyrazin-2-yl)vinyl)phenyl)-3,6,6-trimethyl-3,6-dihydro-2H-1,4-thiazine 1,1-dioxide] showed an IC50 [1] of 111 nM, an IC50 [2] of 56 nM and an IC50 [3] of 409 nM. The IC50 [4] was 148000 nM.
In the case of CN1C(N)=N[C@](C)(c2cc(/C=C(\F)c3cc(F)c(C#N)cn3)ccc2F)CS1(=O)=O [Example 226, 6-((Z)-2-(3-((5R)-3-amino-2,5-dimethyl-1,1-dioxido-5,6-dihydro-2H-1,2,4-thiadiazin-5-yl)-4-fluorophenyl)-1-fluoroethenyl)-4-fluoro-3-pyridinecarbonitrile], the IC50 [1] is reported as 7 nM, the IC50 [2] is reported as 341 nM and the IC50 [3] is reported as 14 nM. It also gave an IC50 [4] of 47000 nM.
Work on Cc1cc(C#N)cnc1/C(F)=C/c1ccc(F)c([C@]2(C)CS(=O)(=O)C(C)(C)C(N)=N2)c1 [Example 274, (R,Z)-6-(2-(3-(5-amino-3,6,6-trimethyl-1,1-dioxido-3,6-dihydro-2H-1,4-thiazin-3-yl)-4-fluorophenyl)-1-fluorovinyl)-5-methylnicotinonitrile] yielded an IC50 [1] of 6 nM, an IC50 [2] of 51 nM and an IC50 [3] of 28 nM. The IC50 [4] was 122000 nM.
Compound CC1(C)C(N)=N[C@](C)(c2cc(/C=C(\F)c3ccc(Cl)cn3)ccc2F)CS1(=O)=O [Example 114, (R,Z)-5-amino-3-(5-(2-(5-chloropyridin-2-yl)-2-fluorovinyl)-2-fluorophenyl)-3,6,6-trimethyl-3,6-dihydro-2H-1,4-thiazine 1,1-dioxide] has an IC50 [1] of 9 nM, an IC50 [2] of 80 nM and an IC50 [3] of 3 nM. The IC50 [4] was 115000 nM.
For Cc1cc(C#N)cnc1/C(F)=C/c1cc(F)c(F)c([C@]2(C)CS(=O)(=O)N(C)C(N)=N2)c1 [Example 275, (R,Z)-6-(2-(3-(3-amino-2,5-dimethyl-1,1-dioxido-5,6-dihydro-2H-1,2,4-thiadiazin-5-yl)-4,5-difluorophenyl)-1-fluorovinyl)-5-methylnicotinonitrile], the IC50 [1] was 1 nM, the IC50 [2] was 14 nM and the IC50 [3] was 9 nM. It also gave an IC50 [4] of 55900 nM.
CN1C(N)=N[C@](C)(c2cc(/C=C(/F)c3ccc(Cl)cn3)cc(F)c2F)CS1(=O)=O [Example 151, (R,E)-3-amino-5-(5-(2-(5-chloropyridin-2-yl)-2-fluorovinyl)-2,3-difluorophenyl)-2,5-dimethyl-5,6-dihydro-2H-1,2,4-thiadiazine 1,1-dioxide] showed an IC50 [1] of 240 nM, an IC50 [2] of 1420 nM and an IC50 [3] of 121 nM. For the same compound, the IC50 [4] was 40900 nM.
Work on CN1C(N)=N[C@](C)(c2cc(/C=C(\F)c3ncc4c(n3)OCCO4)ccc2F)CS1(=O)=O [Example 234, (R,Z)-3-Amino-5-(5-(2-(6,7-dihydro-[1,4]dioxino[2,3-d]pyrimidin-2-yl)-2-fluorovinyl)-2-fluorophenyl)-2,5-dimethyl-5,6-dihydro-2H-1,2,4-thiadiazine 1,1-dioxide] yielded an IC50 [1] of 392 nM, an IC50 [2] of 99 nM and an IC50 [3] of 554 nM. It also gave an IC50 [4] of 107000 nM.
With COC(C)COc1cnc(/C(F)=C/c2ccc(F)c([C@@]3(C)N=C(N)[C@@]4(CF)CC[C@@H]3S4(=O)=O)c2)cn1 (stereo partly drawn) [Example 136, (1R,4R,5S)-2-amino-4-(2-fluoro-5-((Z)-2-fluoro-2-(5-(2-methoxypropoxy)pyrazin-2-yl)vinyl)phenyl)-1-(fluoromethyl)-4-methyl-8-thia-3-azabicyclo[3.2.1]oct-2-ene 8,8-dioxide] the IC50 [1] was 51 nM, the IC50 [2] was 218 nM and the IC50 [3] was 315 nM. For the same compound, the IC50 [4] was 78200 nM.
CN1C(N)=N[C@](C)(c2cc(/C=C(\F)c3ncc(C(F)(F)F)cc3Cl)ccc2F)CS1(=O)=O [Example 242, (5R)-5-(5-((Z)-2-(3-chloro-5-(trifluoromethyl)-2-pyridinyl)-2-fluoroethenyl)-2-fluorophenyl)-2,5-dimethyl-5,6-dihydro-2H-1,2,4-thiadiazin-3-amine 1,1-dioxide] was tested, and the IC50 [1] was 5 nM, the IC50 [2] was 26 nM and the IC50 [3] was 10 nM. For the same compound, the IC50 [4] was 99900 nM.
Work on CC1(C)C(N)=N[C@](C)(c2cc(/C=C(\F)c3cnc(OCc4ncco4)cn3)ccc2F)CS1(=O)=O [Example 129, (R,Z)-5-amino-3-(2-fluoro-5-(2-fluoro-2-(5-(oxazol-2-ylmethoxy)pyrazin-2-yl)vinyl)phenyl)-3,6,6-trimethyl-3,6-dihydro-2H-1,4-thiazine 1,1-dioxide] yielded an IC50 [1] of 7 nM, an IC50 [2] of 5 nM and an IC50 [3] of 56 nM. For the same compound, the IC50 [4] was 163000 nM.
CN1C(N)=N[C@](C)(c2cc(/C=C(\F)c3cnc(OCC4CC4)cn3)ccc2F)CS1(=O)=O [Example 143, (R,Z)-3-amino-5-(5-(2-(5-(cyclopropylmethoxy)pyrazin-2-yl)-2-fluorovinyl)-2-fluorophenyl)-2,5-dimethyl-5,6-dihydro-2H-1,2,4-thiadiazine 1,1-dioxide] gave an IC50 [1] of 44 nM, an IC50 [2] of 380 nM and an IC50 [3] of 222 nM. For the same compound, the IC50 [4] was 30500 nM.
C#C[C@H](C)Oc1cnc(/C(F)=C/c2ccc(F)c([C@]3(C)CS(=O)(=O)N(C)C(N)=N3)c2)cn1 [Example 171, (R)-3-amino-5-(5-((Z)-2-(5-((S)-but-3-yn-2-yloxy)pyrazin-2-yl)-2-fluorovinyl)-2-fluorophenyl)-2,5-dimethyl-5,6-dihydro-2H-1,2,4-thiadiazine 1,1-dioxide] gave an IC50 [1] of 5 nM, an IC50 [2] of 6 nM and an IC50 [3] of 142 nM. For the same compound, the IC50 [4] was 17000 nM.
C#C[C@H](CC)Oc1cnc(/C(F)=C/c2ccc(F)c([C@]3(C)CS(=O)(=O)C(C)(C)C(N)=N3)c2)cn1 (single isomer, unassigned) [Example 178] gave an IC50 [1] of 3 nM, an IC50 [2] of 22 nM and an IC50 [3] of 232 nM. The IC50 [4] was 77600 nM.
In the case of CN1C(N)=N[C@](C)(c2cc(/C=C(\F)c3ccc(Cl)cn3)ccc2F)CS1(=O)=O [Example 104, (R,Z)-3-amino-5-(5-(2-(5-chloropyridin-2-yl)-2-fluorovinyl)-2-fluorophenyl)-2,5-dimethyl-5,6-dihydro-2H-1,2,4-thiadiazine 1,1-dioxide], the IC50 [1] is reported as 3 nM, the IC50 [2] is reported as 24 nM and the IC50 [3] is reported as 2 nM. It also gave an IC50 [4] of 95000 nM.
With CC1(C)C(N)=N[C@](C)(c2cc(/C=C(\F)c3cnc(Oc4ccccc4)cn3)ccc2F)CS1(=O)=O [Example 211, (R,Z)-5-amino-3-(2-fluoro-5-(2-fluoro-2-(5-phenoxypyrazin-2-yl)vinyl)phenyl)-3,6,6-trimethyl-3,6-dihydro-2H-1,4-thiazine 1,1-dioxide] the IC50 [1] was 349 nM, the IC50 [2] was 1820 nM and the IC50 [3] was 333 nM. For the same compound, the IC50 [4] was 59500 nM.
In the case of Cc1noc(COc2cnc(/C(F)=C/c3ccc(F)c([C@@]4(C)N=C(N)[C@@]5(CF)CC[C@@H]4S5(=O)=O)c3)cn2)n1 [Example 115, (1R,4R,5S)-2-amino-4-(2-fluoro-5-((Z)-2-fluoro-2-(5-((3-methyl-1,2,4-oxadiazazol-5-yl)methoxy)pyrazin-2-yl)vinyl)phenyl)-1-(fluoromethyl)-4-methyl-8-thia-3-azabicyclo[3.2.1]oct-2-ene 8,8-dioxide], the IC50 [1] is reported as 22 nM, the IC50 [2] is reported as 27 nM and the IC50 [3] is reported as 192 nM. It also gave an IC50 [4] of 102000 nM.
Compound CC1(C)C(N)=N[C@](C)(c2cc(/C=C(\F)c3ccc(C#N)cn3)cc(F)c2F)CS1(=O)=O [Example 192, (R,Z)-6-(2-(3-(5-amino-3,6,6-trimethyl-1,1-dioxido-3,6-dihydro-2H-1,4-thiazin-3-yl)-4,5-difluorophenyl)-1-fluorovinyl)nicotinonitrile] has an IC50 [1] of 12 nM, an IC50 [2] of 35 nM and an IC50 [3] of 46 nM. For the same compound, the IC50 [4] was 76100 nM.
In the case of CC1(C)C(N)=N[C@](C)(c2cc(/C=C(\F)c3ccc(F)cn3)ccc2F)CS1(=O)=O [Example 262, (R,Z)-5-amino-3-(2-fluoro-5-(2-fluoro-2-(5-fluoropyridin-2-yl)vinyl)phenyl)-3,6,6-trimethyl-3,6-dihydro-2H-1,4-thiazine 1,1-dioxide], the IC50 [1] is reported as 47 nM, the IC50 [2] is reported as 180 nM and the IC50 [3] is reported as 11 nM. For the same compound, the IC50 [4] was 108000 nM.

From patent US11021493B2, “1,4-thiazine dioxide and 1,2,4-thiadiazine dioxide derivatives as beta-secretase inhibitors and methods of use” (AMGEN INC., priority 2016, dated 2021)
